Assay results from patent US20230085307A1, “PYRIDAZINONE COMPOUND AND HERBICIDE” (NISSAN CHEMICAL CORPORATION, priority 2019, published 2023).

Legend:
Chinese sprangletop = assay: Test Example 3: herbicidal effect by foliage application, Wagner pot (Table 18, symbol D); assay type: in vivo, chinese sprangletop (Leptochloa chinensis); settings: 320 g/ha
How it was run: (§1)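 Plants were sown in alluvial soil held under 0.1–0.5 cm standing water and grown 14 days in a greenhouse at 25–30 °C. An emulsifiable formulation, water-diluted to the set dose, was then sprayed onto the foliage, and effects were scored three weeks later using previously defined criteria.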

windgrass [1] = assay: Test Example 4: herbicidal effect by soil treatment (Table 19, symbol L); assay type: in vivo, windgrass (Apera spica-venti); settings: AAH 320 g/ha
How it was run: (§2)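 Emulsion of test compound, water-diluted to predetermined amount, sprayed on soil after sowing (seed depth ~1.5 cm, sterilized diluvial soil). Greenhouse, 25–30° C. Effect graded at three weeks post-spray.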

lambsquarters [2] = assay: Test Example 4: herbicidal effect by soil treatment (Table 19, symbol O); assay type: in vivo, lambsquarters (Chenopodium album); settings: AAH 320 g/ha
How it was run: as §2

southern crabgrass [3] = assay: Test Example 5: herbicidal effect by foliage application, plastic box (Table 20, symbol F); assay type: in vivo, southern crabgrass (Digitaria ciliaris); settings: foliage application, 320 g/ha, 3 weeks after application
How it was run: (§3)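 Post-emergence foliar test in sterilized diluvial soil. Compound applied as water-diluted emulsion at a predetermined rate to 14-day-old plants; evaluation at three weeks.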

Italian ryegrass = assay: Test Example 5: herbicidal effect by foliage application, plastic box (Table 20, symbol K); assay type: in vivo, Italian ryegrass (Lolium multiflorum); settings: foliage application, 320 g/ha, 3 weeks after application
How it was run: as §3

lambsquarters [4] = assay: Test Example 5: herbicidal effect by foliage application, plastic box (Table 20, symbol O); assay type: in vivo, lambsquarters (Chenopodium album); settings: foliage application, 320 g/ha, 3 weeks after application
How it was run: as §3

persian speedwell = assay: Test Example 5: herbicidal effect by foliage application, plastic box (Table 20, symbol R); assay type: in vivo, Persian speedwell (Veronica persica); settings: foliage application, 320 g/ha, 3 weeks after application
How it was run: as §3

barnyard grass [5] = assay: Test Example 3: herbicidal effect by foliage application, Wagner pot (Table 18, symbol H); assay type: in vivo, barnyard grass (Echinochloa crus-galli); settings: 320 g/ha
How it was run: as §1

velvetleaf [6] = assay: Test Example 5: herbicidal effect by foliage application, plastic box (Table 20, symbol M); assay type: in vivo, velvetleaf (Abutilon theophrasti); settings: foliage application, 320 g/ha, 3 weeks after application
How it was run: as §3

late watergrass = assay: Test Example 1: herbicidal activity, application before weed generation under submerged conditions (Table 16, symbol A); assay type: in vivo, late watergrass (Echinochloa oryzicola); settings: 320 g/ha applied herbicide
How it was run: (§4)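 Submerged Wagner pots (alluvial soil, 4 cm water) sown with weed seeds and planted with 2.5-leaf rice seedlings; emulsifiable concentrate diluted in water applied to water surface on sowing day. Held in greenhouse at 25-30 °C; injury scored 0-5 by herbicidal rate after three weeks.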

velvetleaf [7] = assay: Test Example 4: herbicidal effect by soil treatment (Table 19, symbol M); assay type: in vivo, velvetleaf (Abutilon theophrasti); settings: AAH 320 g/ha
How it was run: as §2

windgrass [8] = assay: Test Example 5: herbicidal effect by foliage application, plastic box (Table 20, symbol L); assay type: in vivo, windgrass (Apera spica-venti); settings: foliage application, 320 g/ha, 3 weeks after application
How it was run: as §3

wild oat = assay: Test Example 5: herbicidal effect by foliage application, plastic box (Table 20, symbol I); assay type: in vivo, wild oat (Avena fatua); settings: foliage application, 320 g/ha, 3 weeks after application
How it was run: as §3

southern crabgrass [9] = assay: Test Example 4: herbicidal effect by soil treatment (Table 19, symbol F); assay type: in vivo, southern crabgrass (Digitaria ciliaris); settings: AAH 320 g/ha
How it was run: as §2

Japanese bulrush [10] = assay: Test Example 1: herbicidal activity, application before weed generation under submerged conditions (Table 16, symbol B); assay type: in vivo, Japanese bulrush (Schoenoplectus juncoides); settings: 320 g/ha applied herbicide
How it was run: as §4

Japanese bulrush [11] = assay: Test Example 2: herbicidal activity, application during weed generation under submerged conditions (Table 17, symbol B); assay type: in vivo, Japanese bulrush (Schoenoplectus juncoides); settings: AAH 320 g/ha; application during weed generation, submerged conditions
How it was run: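 Wagner pot, alluvial soil, 4 cm flood; mixed sowing of all species; greenhouse 25° C.–30° C. Emulsifiable formulation, water-diluted to predetermined dose, applied to paddy water at 1–2 leaf stage. Effect rated at 3 wk using the earlier test's scoring criteria.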

barnyard grass [12] = assay: Test Example 4: herbicidal effect by soil treatment (Table 19, symbol H); assay type: in vivo, barnyard grass (Echinochloa crus-galli); settings: AAH 320 g/ha
How it was run: as §2

Compound | herbicidal effect on D (Chinese sprangletop), rating 0-5 (Chinese sprangletop) | L: windgrass, herbicidal effect rating (windgrass [1]) | O: lambsquarters, herbicidal effect rating (lambsquarters [2]) | effect on southern crabgrass (F) (southern crabgrass [3]) | effect on Italian ryegrass (K) (Italian ryegrass) | effect on lambsquarters (O) (lambsquarters [4]) | effect on persian speedwell (R) (persian speedwell) | herbicidal effect on H (barnyard grass), rating 0-5 (barnyard grass [5]) | effect on velvetleaf (M) (velvetleaf [6]) | Herbicidal effect on A: late watergrass (grade 0-5) (late watergrass) | M: velvetleaf, herbicidal effect rating (velvetleaf [7]) | effect on windgrass (L) (windgrass [8]) | effect on wild oat (I) (wild oat) | F: southern crabgrass, herbicidal effect rating (southern crabgrass [9]) | Herbicidal effect on B: Japanese bulrush (grade 0-5) (Japanese bulrush [10]) | herbicidal effect rating, B: Japanese bulrush (Japanese bulrush [11]) | H: barnyard grass, herbicidal effect rating (barnyard grass [12])
Cc1nn(C)c(=O)c(-c2c(-c3ccc(OCC(F)F)cc3)sc3ccccc23)c1O [1-203] | 4 (Herbicidal rate of 70% or more and less than 90%) | 0 (Herbicidal rate of 5% or less (almost no effect)) | 5 (Herbicidal rate of 90% or more (almost completely withered)) | 3 (Herbicidal rate of 40% or more and less than 70%) | 5 (Herbicidal rate of 90% or more (almost completely withered)) | 5 (Herbicidal rate of 90% or more (almost completely withered)) | 5 (Herbicidal rate of 90% or more (almost completely withered)) | 5 (Herbicidal rate of 90% or more (almost completely withered)) | 5 (Herbicidal rate of 90% or more (almost completely withered)) | 5 (Herbicidal rate of 90% or more (almost completely withered)) | 5 (Herbicidal rate of 90% or more (almost completely withered)) | 4 (Herbicidal rate of 70% or more and less than 90%) | 0 (Herbicidal rate of 5% or less (almost no effect)) | 4 (Herbicidal rate of 70% or more and less than 90%) | 5 (Herbicidal rate of 90% or more (almost completely withered)) | 3 (Herbicidal rate of 40% or more and less than 70%) | 5 (Herbicidal rate of 90% or more (almost completely withered))
COCCOCOc1c(C)nn(C)c(=O)c1-c1c(-c2ccc(OCCSC)cc2)sc2ccccc12 [1-221] | 5 (Herbicidal rate of 90% or more (almost completely withered)) | 0 (Herbicidal rate of 5% or less (almost no effect)) | 4 (Herbicidal rate of 70% or more and less than 90%) | 5 (Herbicidal rate of 90% or more (almost completely withered)) | 5 (Herbicidal rate of 90% or more (almost completely withered)) | 5 (Herbicidal rate of 90% or more (almost completely withered)) | 5 (Herbicidal rate of 90% or more (almost completely withered)) | 5 (Herbicidal rate of 90% or more (almost completely withered)) | 5 (Herbicidal rate of 90% or more (almost completely withered)) | 5 (Herbicidal rate of 90% or more (almost completely withered)) | 2 (Herbicidal rate of 20% or more and less than 40%) | 5 (Herbicidal rate of 90% or more (almost completely withered)) | 5 (Herbicidal rate of 90% or more (almost completely withered)) | 2 (Herbicidal rate of 20% or more and less than 40%) | 3 (Herbicidal rate of 40% or more and less than 70%) | 3 (Herbicidal rate of 40% or more and less than 70%) | 3 (Herbicidal rate of 40% or more and less than 70%)
COCCOCOc1c(C)nn(C)c(=O)c1-c1c(-c2ccc(OCCC3OCCO3)cc2)sc2ccccc12 [1-224] | 3 (Herbicidal rate of 40% or more and less than 70%) | 0 (Herbicidal rate of 5% or less (almost no effect)) | 3 (Herbicidal rate of 40% or more and less than 70%) | 3 (Herbicidal rate of 40% or more and less than 70%) | 0 (Herbicidal rate of 5% or less (almost no effect)) | 4 (Herbicidal rate of 70% or more and less than 90%) | 5 (Herbicidal rate of 90% or more (almost completely withered)) | 5 (Herbicidal rate of 90% or more (almost completely withered)) | 5 (Herbicidal rate of 90% or more (almost completely withered)) | 5 (Herbicidal rate of 90% or more (almost completely withered)) | 5 (Herbicidal rate of 90% or more (almost completely withered)) | 0 (Herbicidal rate of 5% or less (almost no effect)) | 0 (Herbicidal rate of 5% or less (almost no effect)) | 2 (Herbicidal rate of 20% or more and less than 40%) | 5 (Herbicidal rate of 90% or more (almost completely withered)) | 3 (Herbicidal rate of 40% or more and less than 70%) | 1 (Herbicidal rate of 5% or more and less than 20%)
C#CCSCc1ccc(-c2sc3ccccc3c2-c2c(O)c(C)nn(C)c2=O)cc1 [1-247] | 1 (Herbicidal rate of 5% or more and less than 20%) | 0 (Herbicidal rate of 5% or less (almost no effect)) | 3 (Herbicidal rate of 40% or more and less than 70%) | 2 (Herbicidal rate of 20% or more and less than 40%) | 4 (Herbicidal rate of 70% or more and less than 90%) | 5 (Herbicidal rate of 90% or more (almost completely withered)) | 5 (Herbicidal rate of 90% or more (almost completely withered)) | 5 (Herbicidal rate of 90% or more (almost completely withered)) | 5 (Herbicidal rate of 90% or more (almost completely withered)) | 2 (Herbicidal rate of 20% or more and less than 40%) | 0 (Herbicidal rate of 5% or less (almost no effect)) | 0 (Herbicidal rate of 5% or less (almost no effect)) | 1 (Herbicidal rate of 5% or more and less than 20%) | 0 (Herbicidal rate of 5% or less (almost no effect)) | 2 (Herbicidal rate of 20% or more and less than 40%) | 0 (Herbicidal rate of 5% or less (almost no effect)) | 0 (Herbicidal rate of 5% or less (almost no effect))
